From ChEMBL document CHEMBL1155052, “Hypaphorine, an indole alkaloid from Erythrina velutina, induced sleep on normal mice” (2008) come the findings set out here.

Format in all cases: functional
Holding throughout (conditions): route intraperitoneal

The test system of experiment [1] is Mus musculus. The experiment can be described thus: Increase in non-rapid eye movement sleep time in C57BL mouse assessed during first hour of administration at 300 mg/kg, ip.
Experiment [2] has as its system Mus musculus. The experiment can be described thus: Increase in total sleep time in C57BL mouse assessed during first hour of administration at 300 mg/kg, ip.
Experiment [3] has as its system Mus musculus. As to the kind of experiment: Decrease in waking duration in C57BL mouse assessed during first hour of administration at 300 mg/kg, ip. Also on record: scale not given: the % may be the effect or the level left.

As for `C[N+](C)(C)[C@H](Cc1c[nH]c2ccccc12)C(=O)[O-]` [HYPAPHORINE], the Activity in experiment [1] is 33%; in experiment [2], 32%; in experiment [3], 16%.
